Patent US5594009A, “Fused pyrrolocarbazoles” (priority 1995, dated 1997)
Where two headings read alike, the source gives them in different places.

Tests used:
[1] = test system: choline acetyltransferase (ChAT) activity in dissociated rat embryonic spinal cord culture; assay: Spinal Cord ChAT Activity Assay; assay type: cell-based; conditions: ChAT measured after 48 hours
[2] = biological target: protein kinase C; assay: PKC Activity Inhibition Assay; assay type: biochemical
Protocol: Fused pyrrolocarbazoles inhibited the activity of protein kinase C (Table VI). The protein kinase C assay has been disclosed (Murakata et al., U.S. Pat. No. 4,923,986; Kikkawa et al., J. Biol. Chem. 257:13341-13348 (1982)). The assay was performed with several concentrations of fused pyrrolocarbazoles. The concentration at which protein kinase C was 50% inhibited (IC50) was determined.

[3] = test system: ChAT activity of basal forebrain cultures; assay: Basal Forebrain ChAT Activity Assay; assay type: cell-based, rat
Protocol: Fused pyrrolocarbazoles were tested for the ability to increase ChAT activity of basal forebrain cultures.
Methods: The basal forebrain was dissected from rat embryos (day 17 or 18 embryos) and the cells were dissociated with a neutral protease (Dispase™, Collaborative Research). Neurons were plated at a density of 5×10^4 cells/well (1.5×10^5 cells/cm^2) in poly-1-ornithine and laminin coated plates. Cells were cultured in serum-free N2 medium containing 0.05% BSA at 37° C. in a humidified atmosphere, 5% CO2 /95% air. ChAT activity was assessed 5 days after plating by using the ChAT assay as described in Example III(A)(1).

[4] = test system: AT-2 cells; assay: Inhibition of Growth of Prostate Cancer Cell Line (MTS assay); assay type: cell-based; conditions: 72 h, read-out: AT-2 cell growth IC50
Protocol: AT-2 cells are a prostate cancer cell sub-line derived from the Dunning H tumor, graciously provided to us by Dr. John Isaacs (John Hopkins, M. D.). Unlike the Dunning H tumor cells, AT-2 cells can be grown in vitro.
Methods: At-2 cells ([…]) were plated on tissue culture plastic in 96-well plates in the presence of RPMI-1640 medium containing 10% fetal calf serum, 250 nM dexamethasone, 2 mM glutamine, 1 mM sodium pyruvate, and penicillin/streptomycin antibiotics. The next day, compounds were added at 4 concentrations (10, 1, 0.1, 0.01 μM) to determine the approximate IC50 range. Cultures were assayed 3 days later for cell number using the MTS [(3-(4,5-dimethylthiazol-2-yl)-5-(3-carboxymethoxyphenyl)-2-(4-sulfophenyl)-2H-tetrazolium, inner salt)] assay. The MTS assay (purchased as a kit from Promega) measures the formation of an aqueous soluble formazan (detected by a plate reader at 490nm) produced by the bioreduction of a tetrazolium compound (MTS) in metabolically active cells via mitochondrial succinate dehydrogenase. After determining linearity of the substrate incubation time over a range of cell plating densities, the amount of product measured is directly proportional to cell number. MTS (333 ug/ml) and 25 μM phenazine methosulfate are mixed and added directly to the culture medium, and incubated at 37° C. in the 5% CO2 /95% air incubator for 0.5-4 h. Absorbance of the product at 490 nm is read on the BIO-TEK plate reader. Background values were obtained from wells containing culture medium with substrate solution, but no cells. In addition, values were also obtained from wells containing cells plated at day 0 and assayed on the day compound was added (day 1) in order to determine the number of cells at the time compound was added. After the initial dose-finding experiment was completed, subsequent experiments were set up so that there were 3 or more concentrations near the predicted IC50.

[5] = test system: NT-3 induced ChAT activity of rat basal forebrain cultures; assay: Enhancement of Neurotrophin (NT-3) Activity Assay, ChAT activity in basal forebrain cultures; assay type: cell-based
Protocol: Fused pyrrolocarbazoles were tested for the ability to enhance the activity of the neurotrophin NT-3 in basal forebrain cultures. ChAT activity was assayed as a measure of cholinergic neuron function and survival. The concentration of NT-3 (100 ng/ml) used in these experiments increased ChAT activity over control cultures (untreated with NT-3 or a fused pyrrolocarbazole) by 140%.
Methods. Basal forebrain cultures were prepared from embryonic rats (embryonic day 17) and dissociated with the neutral protease Dispase™. Cells were plated at a density of 4×10^5 cells/cm^2 on poly-1-ornithine coated plastic tissue culture plates in a mixture of DMEM and F12 media (50/50 v/v GIBCO) supplemented with 5% horse serum and 0.5% fetal bovine serum. Cells were incubated at 37° C. in a humidified atmosphere of 5% CO2 /95% air for 5 days. ChAT activity was measured as described in Example III(A)(1).
Recombinant rat NT-3 was produced by using a recombinant baculovirus expression vector under the control of the polyhedron virus promoter (Fraser, In Vitro Cell. and Dev. Biol. 25:225-235 (1989)). The plasmid pXM-NT3 (Hallbook et al., Neuron 6:845-858 (1991), which contained the rat NT-3 cDNA clone, was provided by Dr. Ira Black (University of Medicine and Dentistry of New Jersey, Piscataway, N.J.). NT-3 cDNA was subcloned into the transfer vector pVL1392 (In Vitrogen Corp., San Diego, Calif.) for recombinant virus production. Recombinant baculovirus was produced as described in Meyer et al. (Meyer at al., J. Neurochem 62:825-833 (1994)).

[6] = biological target: trkA tyrosine kinase (Homo sapiens, UniProt P04629); assay: trkA Tyrosine Kinase Activity Inhibition Assay (ELISA); assay type: biochemical
Protocol: These compounds were then tested for the ability to inhibit substrate phosphorylation by the trkA tyrosine kinase.
Plates were washed three times with TBST, followed by two washes with TBS (TBST sans Tween-20). Fused pyrrolocarbazoles were then added at various concentrations to a reaction mixture (50 mM HEPES, pH 7.4, 5 mM MnCl2, 5 mM MgCl2, 140 mM NaCl, 16 μM ATP, and 15 ng trkA in a total volume of 1001 μL.). As a negative control, 100 mM EDTA was included in the reaction solution. The plates were then incubated at 37° C. for 15 min. The detection antibody, monoclonal anti-phosphotyrosine antibody (UBI), was added at a dilution of 1:2000 in TBST, and incubated for 1 hour at 37° C. Plates were then washed three times with TBST, followed by a 1 hour incubation at 37° C. with alkaline phosphatase-labeled goat anti-mouse IgG (1:2000 in TBST (Bio-Rad)). After washing three times with TBST followed by two washes with TBS, a colored product was produced by using NADPH as substrate for alkaline phosphatase, and the coupled reactions of diaphorase and alcohol dehydrogenase (GIBCO-BRL ELISA amplification system). The colored product was read at 490 nm in a microplate reader (Biotek).

[7] = test system: indoleamine 2,3-dioxygenase (IDO) mRNA in THP-1 cells; assay: Inhibition of Induction By IFNγ of IDO mRNA; assay type: cell-based; conditions: Homo sapiens, compound 400 nM, IFNγ 400 units/ml, IDO/GAPD mRNA ratio, 48 hours, read-out: IDO mRNA, Phosphorimager units, % of IFNγ-treated cells
Protocol: Fused pyrrolocarbazoles in accordance with our invention were tested for their ability to inhibit the induction by IFNγ of indoleamine 2,3-dioxygenase (IDO) mRNA in THP-1 cells, a human monocyte cell line.
Cell Culture: THP-1 cells (American Type Culture Collection, Rockville, Md.), a human monocytic leukemia cell line, were grown in RPMI 1640 medium (Mediatech, Herndon Valley, Va.) with 50 μM 2-mercaptoethanol and 10% fetal bovine serum. Cells were plated in T75 culture flasks, at 4×10^4 cells/cm^2 in 10 ml of medium, and were immediately treated with fused pyrrolocarbazoles at various concentrations. After 30 minutes recombinant (E. coli) IFNγ (Boehringer Mannheim Corporation,Indianapolis, Ind.) was added at 200-400 units/ml. Cells were incubated (37° C., 5% CO2 /95% Air) for 48 hours after treatment.
RNA Isolation: Cells were pelleted by centrifugation (50× g, 7 min.) and medium was decanted. The cells were then washed two times with phosphate buffered saline pH 7.2 (PBS) (Mediatech, Herndon Valley, Va.). The washed cell pellet was lysed in 2 ml RNAzol B (Tel-Test, Inc., Friendswood, Tex.). RNA was isolated by chloroform extraction, precipitated, and washed following the "RNAzol B isolation of RNA" protocol accompanying this product. RNA was then solubilized in H2 O, and the concentration and purity were determined by reading the absorbance at A260 nm and A280 nm. Finally, the RNA was reprecipitated in ethanol, overnight at -20° C.
cDNA Probes: Indoleamine 2,3-dioxygenase (IDO) cDNA was received from Sohan L. Gupta, Ph. D. (Hipple Cancer Research Center, Dayton, Ohio) (see Da., W. & Gupta, S. L. 168 Biochem. Biophys. Res. Commun. 1, 1990 and Hassanain, H. H. et al. 268 J. Biol. Chem. 5077, 1993). Glyceraldehyde-3-phosphate dehydrogenase (GAPD) cDNA was obtained through American Type Culture Collection (Rockville, Md.). These cDNA's were produced and purified using standard methods (see, Sambrook, Fritsch, Maniatis (1989) Molecular Cloning a Laboratory Manual/Second Edition 1, 1.21-1.24, 1.74-1.81, hereinafter in this Example, "Maniatis a") using Qiagen plasmid purification kits (Qiagen Inc., Chatsworth, Calif.). DNA concentration and purity were determined by absorbance at 280 nm and 260 nm. Specific DNA inserts were cut out by standard methods using restriction enzymes, and subsequently separated on agarose gels as in Maniatis (see, Sambrook, Fritsch, Maniatis (1989) Molecular Cloning a Laboratory Manual/Second Edition 1, 6.9-6.15, hereinafter in this Example, "Maniatis b"). cDNA probes were further purified for [^32 P] labeling using the Geneclean II DNA purification kit (BIO 101, Inc., La Jolla, Calif.). Probes were labeled with dCTP-α-^32 P (Amersham Corp., Arlington Heights, Ill.) by random primer labeling, using the Prime-a-GeneLabeling System (Promega Corp., Madison, Wis.).
Analysis and quantification of mRNA: IDO mRNA was detected by Northern blot analysis (see Maniatis a, p. 7.39-7.51) using standard methods. […] Quantification of IDO mRNA was carried out using a phosphorimager (Molecular Dynamics) in which density (i.e., amount of RNA) is expressed as relative phosphorimager units. […] GAPD mRNA measurement by phosphorimager quantification of Northern blots serves as a means to normalize for potential sample to sample differences in the amount of total RNA loaded on gels. […]

[8] = test system: chick DRG neurons; assay: DRG Neuron Survival Assay (calcein AM); assay type: cell-based; conditions: 48 hours; for viability at 0.25 µM: 250 nM
Protocol: Fused pyrrolocarbazoles promoted dorsal root ganglion (DRG) neuronal survival in cultures of chick DRG neurons. Cell survival was measured by uptake of calcein AM, an analog of the viable dye, fluorescein diacetate. Calcein is taken up by viable cells and cleaved intracellularly to fluorescent salts which are retained by intact membranes of viable cells. Microscopic counts of viable neurons correlate directly with relative fluorescence values obtained with the fluorimetric viability assay. This method thus provides a reliable and quantitive measurement of cell survival in the total cell population of a given culture (Bozyczko-Coyne et al., J. Neur. Meth. 50:205-216, 1993).
Methods: Dorsal root ganglia were dissected from embryonic age day 9 chick embryos and dissociated cells prepared by subsequent Dispase (neutral protease, Collaborative Research) dissociation. Neurons were seeded at low density (3×10^4 cells/cm^2) into 96 well poly-L-ornithine and laminin coated plates. Cells were cultured for 48 hours in serum-free N2 medium (Bottenstein and Sato, 1979) at 37° C. in a humidified atmosphere, 5% CO2 /95% air. Cell survival was assessed at 48 hours using the viable fluorimetric assay described above.

[9] = 16 μM ATP, 37° C., 15 min, read-out: INHIBITION OF trkA KINASE IC50
[10] = Gallus gallus, DRG neuron, read-out: Neuronal Survival (% of Control)

Sequence of trkA tyrosine kinase (P04629 33-796): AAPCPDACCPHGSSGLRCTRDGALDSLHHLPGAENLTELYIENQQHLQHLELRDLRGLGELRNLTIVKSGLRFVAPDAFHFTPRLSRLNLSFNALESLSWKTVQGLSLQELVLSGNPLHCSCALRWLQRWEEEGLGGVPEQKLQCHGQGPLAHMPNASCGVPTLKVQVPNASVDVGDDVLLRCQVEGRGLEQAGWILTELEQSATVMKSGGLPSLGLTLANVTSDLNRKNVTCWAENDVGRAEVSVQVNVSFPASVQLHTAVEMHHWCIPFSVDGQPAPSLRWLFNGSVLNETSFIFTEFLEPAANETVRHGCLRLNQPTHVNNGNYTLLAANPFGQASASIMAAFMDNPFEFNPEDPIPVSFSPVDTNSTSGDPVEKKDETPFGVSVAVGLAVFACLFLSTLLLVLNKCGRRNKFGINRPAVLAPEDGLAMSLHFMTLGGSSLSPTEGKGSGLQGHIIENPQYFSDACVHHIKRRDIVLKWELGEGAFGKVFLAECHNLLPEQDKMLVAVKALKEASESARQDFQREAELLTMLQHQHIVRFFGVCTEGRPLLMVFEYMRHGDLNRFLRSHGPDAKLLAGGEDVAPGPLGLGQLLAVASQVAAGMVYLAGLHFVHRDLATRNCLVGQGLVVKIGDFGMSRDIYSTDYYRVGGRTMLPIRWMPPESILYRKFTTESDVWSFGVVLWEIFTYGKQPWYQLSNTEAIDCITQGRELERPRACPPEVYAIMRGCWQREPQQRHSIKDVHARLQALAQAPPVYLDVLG

Row | Structure (SMILES) | Spinal Cord ChAT Activity, % of Control, untreated cultures [1] | IC50 [2] | ChAT Activity (% of Control) ([3]; 100 nM) | IC50 ([4]; 3 days, MTS) | IC50 [6, 9] | viability at 0.25 µM [8, 10] | also measured
1 | O=C1NCc2c3c(c4[nH]c5ccccc5c4c21)Cc1ccccc1-3 [Compound I-3] | 174 % of Control | 100 nM | inactive | 380 nM |  |  | ChAT Activity (% of Control) ([3]; 250 nM): inactive; activity at 0.5 µM ([3]; Rattus norvegicus, 120 h, 500 nM, read-out: ChAT Activity (% of Control)): 130%
2 | O=C1NC(=O)c2c1c1c(c3[nH]c4ccc(F)cc4c23)Cc2ccccc2-1 [Compound I-7] | 164 % of Control | 150 nM |  | 1370 nM | > 1000 nM |  | ChAT activity in the absence of NT-3 ([5]; compound added alone to basal forebrain neurons, no NT-3): no effect on ChAT activity; ChAT activity in the presence of NT-3 ([5]; with 100 ng/ml NT-3): enhanced ChAT activity
3 | O=C1NCc2c1c1c(c3[nH]c4ccc(Br)cc4c23)Cc2ccccc2-1 [Compound I-9, 3-Bromo-5H, 6H, 12H, 13H-indeno[2,3-a]pyrrolo[3,4-c]carbazole-7(7H)one] | 185 % of Control | 4500 nM |  |  |  |  | mrna remaining at 0.4 µM [7]: 60%
4 | O=C1NC(=O)c2c1c1c3ccccc3ccc1c1[nH]c3ccccc3c21 [Compound I-15, 6H, 14H-naphthyl[3,4-a]pyrrolo[3,4-c]carbazole-5,7(5H, 7H)-dione] | 182 % of Control | 50 nM |  |  |  | 132% | IC50 [6]: > 1000 nM; IC50 [4]: 4300 nM; Neuronal Survival (% of Control) ([8]; 100 nM): inactive; Neuronal Survival (% of Control) ([8]; 500 nM): inactive
5 | O=C1NC(=O)c2c1c1c3ccccc3[nH]c1c1sc3ccccc3c21 [Compound I-20, 6H, 12-Benzo[b]thieno[2,3-a]pyrrolo[3,4-c]carbazole-5,7(5H,7H)dione] | 130 % of Control | 150 nM |  | > 10000 nM |  |  | 
6 | O=C1NCc2c1c1c(c3[nH]c4ccc(C=Cc5ccccc5)cc4c23)Cc2ccccc2-1 [Compound I-24, 3-(2-Phenylethenyl)5H,6H,12H,13H-indeno[2,3-a]pyrrolo[3,4-c]carbazole-7(7H)-one] | 236 % of Control | 8000 nM | inactive | > 10000 nM | > 1000 nM | 167% | activity at 0.25 µM ([3]; Rattus norvegicus, 120 h, 250 nM, read-out: ChAT Activity (% of Control)): 151%; viability at 0.1 µM ([8]; Gallus gallus, DRG neuron, 100 nM, read-out: Neuronal Survival (% of Control)): 154%; viability at 0.5 µM ([8]; Gallus gallus, DRG neuron, 500 nM, read-out: Neuronal Survival (% of Control)): 163%
